In one assay the target is T1, Mtb IMPDH (Mycobacterium tuberculosis, UniProt P9WKI7).
T1 construct: made in house
The experiment in a line: IMPDH biochemical assay (inhibition of Mtb GuaB2). The conditions noted are these: for IC50: Mtb IMPDH (GuaB2) enzyme.

Assay [1] relates to wild-type M. tuberculosis strain H37Rv. The experiment in a line: microbe, parasite or virus in culture. The conditions noted are these: for fold reduction in whole-cell activity: relative to compound 41. The format is cell-based.
The mark [2] stands for this setting: Mycobacterium tuberculosis, H37RV, wild-type M. tuberculosis H37Rv, read-out: MIC90 against WT.
Where [3] appears, read: Mycobacterium tuberculosis, H37RV, read-out: MIC90 against WT, wild-type M. tuberculosis H37Rv.
Where [4] appears, read: wild-type M. tuberculosis H37Rv, read-out: MIC90 against WT.

By IC50 is commonly meant the concentration at which inhibition is half-maximal. Read a low IC50 as inhibition by little substance.

Converted amounts (≈) assume the structure as drawn. Where two headings read alike, the source gives them in different places.

T1 sequence (P9WKI7 whole entry, looked up): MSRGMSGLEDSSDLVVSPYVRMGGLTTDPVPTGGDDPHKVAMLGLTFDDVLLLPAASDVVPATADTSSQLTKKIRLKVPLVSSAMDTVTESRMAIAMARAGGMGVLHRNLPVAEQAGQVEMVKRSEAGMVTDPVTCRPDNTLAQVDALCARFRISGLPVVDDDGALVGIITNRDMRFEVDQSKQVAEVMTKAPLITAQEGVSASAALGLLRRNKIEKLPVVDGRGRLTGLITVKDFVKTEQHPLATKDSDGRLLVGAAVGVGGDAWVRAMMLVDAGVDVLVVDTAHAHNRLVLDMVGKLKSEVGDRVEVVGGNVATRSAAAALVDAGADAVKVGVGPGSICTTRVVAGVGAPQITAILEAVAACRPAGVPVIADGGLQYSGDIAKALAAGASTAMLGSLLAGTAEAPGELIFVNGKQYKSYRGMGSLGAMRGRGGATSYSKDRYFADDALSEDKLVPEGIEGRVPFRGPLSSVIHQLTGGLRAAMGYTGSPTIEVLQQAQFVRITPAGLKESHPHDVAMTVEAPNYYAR

`O=C(Nc1cccc(Cl)c1Cl)N1CCN(S(=O)(=O)c2cccc3cnccc23)CC1` [Compound 37, N-(2,3-dichlorophenyl)-4-(isoquinolin-5-ylsulfonyl)piperazine-1-carboxamide] displayed an IC50 against Mtb IMPDH of 900 ± 60 nM. Also, the MIC90 in assay [1] (setting [2]) was 125 µM (≈ 58.2 µg/mL).

For `O=C(NCCNS(=O)(=O)c1cccc2cnccc12)C1CCCCC1` [Compound 2, N-{2-[(isoquinoline-5-sulfonyl)amino]ethyl}cyclohexanecarboxamide], at Mtb IMPDH, half-maximal inhibition (IC50) was put at 500 ± 20 nM. Moreover, in assay [1] (setting [3]), the MIC90 is 50 µM (≈ 18.1 µg/mL).

At Mtb IMPDH, `Cc1cccc(CC(=O)N2CCN(S(=O)(=O)c3cccc4cnccc34)CC2)c1` [Compound 28, 1-(4-(isoquinolin-5-ylsulfonyl)piperazin-1-yl)-2-(m-tolyl)ethan-1-one] had an IC50 of 11500 ± 300 nM. Besides, the MIC90 in assay [1] (setting [2]) came to 250 µM (≈ 102 µg/mL).

Take `Cc1cc2c(S(=O)(=O)N3CCN(C(=O)C4CCCCC4)CC3)cccc2cn1` [Compound 6, Cyclohexyl[4-(3-methylisoquinoline-5-sulfonyl)piperazin-1-yl]methanone]: at Mtb IMPDH, the IC50 is greater than 100000 nM. Also, the figures for the MIC90 in assay [1] (setting [3]) and in assay [1] (setting [4]) were 100 µM (≈ 40.2 µg/mL) and greater than 100 µM, respectively.

For `COc1cccc(CNC(=O)N2CCN(S(=O)(=O)c3cccc4cnccc34)CC2)c1` [Compound 47, 4-(isoquinolin-5-ylsulfonyl)-N-(3-methoxybenzyl)piperazine-1-carboxamide], half-maximal inhibition at Mtb IMPDH (IC50) required 35 ± 2 nM. For the same compound, on Mtb IMPDH (relative to compound 1), the “fold greater potency than 1 (IMPDH)” value was roughly 3 fold. In assay [1] (setting [2]), the MIC90 came out at 3.1 µM (≈ 1.37 µg/mL).

For `Cc1ccc(NC(=O)N2CCN(S(=O)(=O)c3cccc4cnccc34)CC2)c([N+](=O)[O-])c1` [Compound 39, 4-(isoquinolin-5-ylsulfonyl)-N-(4-methyl-2-nitrophenyl)piperazine-1-carboxamide], the IC50 at Mtb IMPDH was determined as 600 ± 30 nM. Further, the MIC90 in assay [1] (setting [4]) is 25 µM (≈ 11.4 µg/mL).

At Mtb IMPDH, `CC1(C(=O)N2CCN(S(=O)(=O)c3cccc4cnccc34)CC2)CCCCC1` [Compound 12, [4-(isoquinoline-5-sulfonyl)piperazin-1-yl](1-methylcyclohexyl)methanone] gave an IC50 of 2400 ± 10 nM. In assay [1] (setting [2]), the MIC90 is 250 µM (≈ 100 µg/mL).

For `CC1CCCCC1C(=O)N1CCN(S(=O)(=O)c2cccc3cnccc23)CC1` (centres unmarked) [Compound 13, [4-(isoquinoline-5-sulfonyl)piperazin-1-yl](2-methylcyclohexyl)methanone], the IC50 against Mtb IMPDH stood at 84 nM. In assay [1] (setting [2]), the MIC90 came to 31.2 µM (≈ 12.5 µg/mL).

As to `Cc1ccc(NC(=O)N2CCN(S(=O)(=O)c3cccc4cnccc34)CC2)cc1Cl` [Compound 38, N-(3-chloro-4-methylphenyl)-4-(isoquinolin-5-ylsulfonyl)piperazine-1-carboxamide], it took 1600 ± 200 nM to reach half-maximal inhibition against Mtb IMPDH (IC50). The MIC90 in assay [1] (setting [2]) stood at 100 µM (≈ 44.5 µg/mL).

Turning to `O=C(Nc1ccc(Cl)c([N+](=O)[O-])c1)N1CCN(S(=O)(=O)c2cccc3cnccc23)CC1` [Compound 35, N-(4-chloro-3-nitrophenyl)-4-(isoquinolin-5-ylsulfonyl)piperazine-1-carboxamide], the IC50 at Mtb IMPDH was found to be 5600 ± 200 nM. The MIC90 in assay [1] (setting [2]) stood at 12.5 µM (≈ 5.95 µg/mL).

As to `N#Cc1cccc(CC(=O)N2CCN(S(=O)(=O)c3cccc4cnccc34)CC2)c1` [Compound 24, 3-{2-[4-(isoquinoline-5-sulfonyl)piperazin-1-yl]-2-oxoethyl}benzonitrile], at Mtb IMPDH, the IC50 came to 5960 ± 200 nM. In assay [1] (setting [2]), the MIC90 is 125 µM (≈ 52.6 µg/mL).

On to `O=C(Nc1ccc2c(c1)OCO2)N1CCCN(S(=O)(=O)c2cccc3cnccc23)CC1` [Compound 44, 4-(isoquinoline-5-sulfonyl)-N-(2H-1,3-benzodioxol-5-yl)-1,4-diazepane-1-carboxamide], for which, on Mtb IMPDH, the midpoint of inhibition, the IC50, lay at 600 ± 20 nM. For the same compound, the “fold reduction in biochemical activity” value at Mtb IMPDH (relative to compound 41) is recorded as 8 fold. The MIC90 in assay [1] (setting [2]) is 12.5 µM (≈ 5.68 µg/mL). Also, the “fold reduction in whole-cell activity” value in assay [1] is reported as 2 fold.

The compound `O=C(c1cc([N+](=O)[O-])cc([N+](=O)[O-])c1)N1CCN(S(=O)(=O)c2cccc3cnccc23)CC1` [Compound 19, [4-(isoquinoline-5-sulfonyl)piperazin-1-yl](3,5-dinitrophenyl)methanone] displayed an IC50 on Mtb IMPDH of 1400 ± 10 nM. Besides, in assay [1] (setting [2]), the MIC90 was found to be 12.5 µM (≈ 5.89 µg/mL).

On Mtb IMPDH, `O=S(=O)(c1cccc2cnccc12)N1CCN(C(=S)Nc2ccc3c(c2)OCO3)CC1` [Compound 42, N-(benzo[d][1,3]dioxol-5-yl)-4-(isoquinolin-5-ylsulfonyl)piperazine-1-carbothioamide] returned an IC50 of 1100 ± 100 nM. In addition, in assay [1] (setting [2]), the MIC90 worked out at 50 µM (≈ 22.8 µg/mL). Further, the “fold reduction in whole-cell activity” value in assay [1] is 8 fold.

Compound `N#Cc1ccc(C(=O)N2CCN(S(=O)(=O)c3cccc4cnccc34)CC2)cc1` [Compound 17, 4-[4-(isoquinoline-5-sulfonyl)piperazine-1-carbonyl]benzonitrile] yielded an IC50 at Mtb IMPDH of 16500 ± 500 nM. Besides, in assay [1] (setting [2]), the MIC90 is 100 µM (≈ 40.6 µg/mL).

For the compound `O=C(CC1CCCCC1)N1CCN(S(=O)(=O)c2cccc3cnccc23)CC1` [Compound 22, 2-Cyclohexyl-1-(4-(isoquinolin-5-ylsulfonyl)piperazin-1-yl)ethan-1-one], inhibition at Mtb IMPDH was half-maximal at 230 ± 20 nM (IC50). Also, the MIC90 in assay [1] (setting [2]) is 31.2 µM (≈ 12.5 µg/mL).

In the case of `COc1cccc(CC(=O)N2CCN(S(=O)(=O)c3cccc4cnccc34)CC2)c1` [Compound 26, 1-[4-(isoquinoline-5-sulfonyl)piperazin-1-yl]-2-(3-methoxyphenyl)ethan-1-one], the IC50 on Mtb IMPDH is 2600 ± 200 nM. In assay [1] (setting [2]), the MIC90 came out at 250 µM (≈ 106 µg/mL).

For the compound `N#Cc1cccc(NC(=O)N2CCN(S(=O)(=O)c3cccc4cnccc34)CC2)c1` [Compound 31, N-(3-cyanophenyl)-4-(isoquinolin-5-ylsulfonyl)piperazine-1-carboxamide], the IC50 against Mtb IMPDH was determined as 150 ± 30 nM. In assay [1] (setting [2]), the MIC90 turned out to be 15.6 µM (≈ 6.58 µg/mL).

With `O=C(C1CCCCC1)N1CCC(NS(=O)(=O)c2cccc3cnccc23)CC1` [Compound 5, N-[1-(cyclohexanecarbonyl)piperidin-4-yl]isoquinoline-5-sulfonamide], on Mtb IMPDH, the IC50 is 14700 ± 300 nM. Also, in assay [1] (setting [2]), the MIC90 was greater than 100 µM.

The compound `O=C(Nc1ccc(Cl)c(C(F)(F)F)c1)N1CCN(S(=O)(=O)c2cccc3cnccc23)CC1` [Compound 34, N-(4-chloro-3-(trifluoromethyl)phenyl)-4-(isoquinolin-5-ylsulfonyl)piperazine-1-carboxamide] gave an IC50 against Mtb IMPDH of 160 ± 100 nM. Also, in assay [1] (setting [2]), the MIC90 worked out at 25 µM (≈ 12.5 µg/mL).

Consider `O=C(NCc1ccccc1)N1CCN(S(=O)(=O)c2cccc3cnccc23)CC1` [Compound 46, N-benzyl-4-(isoquinolin-5-ylsulfonyl)piperazine-1-carboxamide], for which the IC50 against Mtb IMPDH is 350 ± 30 nM. In addition, in assay [1] (setting [2]), the MIC90 came out at 3.1 µM (≈ 1.27 µg/mL).

In turn, `O=C(C1CCCCC1)N1CCN(S(=O)(=O)c2cccc3ccccc23)CC1` [Compound 7, Cyclohexyl[4-(naphthalene-1-sulfonyl)piperazin-1-yl]methanone] gave an IC50 against Mtb IMPDH of 3000 ± 100 nM. For the same compound, in assay [1] (setting [2]), the MIC90 was greater than 100 µM.

`O=C(Nc1ccc(F)c(Cl)c1)N1CCN(S(=O)(=O)c2cccc3cnccc23)CC1` [Compound 36, N-(3-chloro-4-fluorophenyl)-4-(isoquinolin-5-ylsulfonyl)piperazine-1-carboxamide] registered an IC50 against Mtb IMPDH of 42 ± 2 nM. Further, the MIC90 in assay [1] (setting [2]) came to 31.2 µM (≈ 14 µg/mL).

Consider `O=C(OCc1ccccc1)N1CCN(S(=O)(=O)c2cccc3cnccc23)CC1` [Compound 49, Benzyl 4-(isoquinolin-5-ylsulfonyl)piperazine-1-carboxylate], for which it took 800 ± 50 nM to reach half-maximal inhibition at Mtb IMPDH (IC50). Besides, in assay [1] (setting [2]), the MIC90 was determined as 100 µM (≈ 41.1 µg/mL).

Compound `O=C(C1CCCCCC1)N1CCN(S(=O)(=O)c2cccc3cnccc23)CC1` [Compound 14, Cycloheptyl[4-(isoquinoline-5-sulfonyl)piperazin-1-yl]methanone] showed an IC50 on Mtb IMPDH of 830 ± 40 nM. Besides, the MIC90 in assay [1] (setting [2]) stood at 31.2 µM (≈ 12.5 µg/mL).

`O=C(NCCNS(=O)(=O)c1cccc2cnccc12)C1CCC1` [Compound 10, N-{2-[(isoquinoline-5-sulfonyl)amino]ethyl}cyclobutanecarboxamide] returned an IC50 against Mtb IMPDH of 2700 ± 100 nM. Moreover, the MIC90 in assay [1] (setting [2]) was 100 µM (≈ 33.3 µg/mL).

`O=C(Nc1cccc(C(F)(F)F)c1)N1CCN(S(=O)(=O)c2cccc3cnccc23)CC1` [Compound 32, 4-(isoquinolin-5-ylsulfonyl)-N-(3-(trifluoromethyl)phenyl)piperazine-1-carboxamide] gave an IC50 on Mtb IMPDH of 80 ± 5 nM. In addition, the MIC90 in assay [1] (setting [2]) was found to be 62.5 µM (≈ 29 µg/mL).

At Mtb IMPDH, `O=C(C1CCCCC1)N1CCN(S(=O)(=O)c2cccc3cnccc23)CC1` [Compound 1, Cyclohexyl[4-(isoquinoline-5-sulfonyl)piperazin-1-yl]methanone] showed an IC50 of 100 ± 10 nM. Moreover, the MIC90 in assay [1] (setting [2]) was determined as 2 µM (≈ 0.775 µg/mL).

Regarding `O=C(Cc1cccc(O)c1)N1CCN(S(=O)(=O)c2cccc3cnccc23)CC1` [Compound 25, 2-(3-hydroxyphenyl)-1-[4-(isoquinoline-5-sulfonyl)piperazin-1-yl]ethan-1-one], inhibition at Mtb IMPDH was half-maximal at 4000 ± 200 nM (IC50). Besides, in assay [1] (setting [2]), the MIC90 was 125 µM (≈ 51.4 µg/mL).

Consider `COc1ccc(CC(=O)N2CCN(S(=O)(=O)c3cccc4cnccc34)CC2)c(OC)c1` [Compound 27, 1-[4-(isoquinoline-5-sulfonyl)piperazin-1-yl]-2-(2,4-dimethoxyphenyl)ethan-1-one], for which inhibition on Mtb IMPDH was half-maximal at 1980 ± 100 nM (IC50). In assay [1] (setting [2]), the MIC90 is 250 µM (≈ 114 µg/mL).

`O=C(NCCNS(=O)(=O)c1cccc2cnccc12)c1cc([N+](=O)[O-])cc([N+](=O)[O-])c1` [Compound 21, N-{2-[(isoquinoline-5-sulfonyl)amino]ethyl}-3,5-dinitrobenzamide] gave an IC50 at Mtb IMPDH of 300 ± 20 nM. In assay [1] (setting [2]), the MIC90 stood at 15.6 µM (≈ 6.95 µg/mL).

Take `O=C(NC1CCN(S(=O)(=O)c2cccc3cnccc23)CC1)C1CCCCC1` [Compound 4, N-[1-(isoquinoline-5-sulfonyl)piperidin-4-yl]cyclohexanecarboxamide]: the IC50 against Mtb IMPDH came out at 9700 ± 300 nM. The MIC90 in assay [1] (setting [2]) is greater than 100 µM.

On to `CC(C)(C)C(=O)N1CCN(S(=O)(=O)c2cccc3cnccc23)CC1` [Compound 11, 1-[4-(isoquinoline-5-sulfonyl)piperazin-1-yl]-2,2-dimethylpropan-1-one], for which the IC50 against Mtb IMPDH was found to be 2800 ± 200 nM. Moreover, the MIC90 in assay [1] (setting [2]) amounted to 100 µM (≈ 36.1 µg/mL).

For the origin of these results see PMC6990405, “Synthesis and Structure–Activity relationship of 1-(5-isoquinolinesulfonyl)piperazine analogues as inhibitors of Mycobacterium tuberculosis IMPDH” (European Journal of Medicinal Chemistry, 2019).
